Measured values: US4320127A, “Pyrido[3,2-e]-as-triazines” (Edyt Gyogyszervegyeszeti Gyar, priority 1979, dated 1982)
Where a name gives a salt, the structure may show the parent alone. Read-outs that look alike come from different tables or passages of the source.

Experiments:
[1] = tested on: acetic acid writhing; assay: analgesic effect, acetic acid writhing test; type: in vivo; conditions: mice, oral; for ED50: Mus musculus, analgesic
Protocol: The analgesic effect of the new compounds was determined on mice at oral administration by the acetic acid writhing test.

[2] = tested on: carrageenin oedema of the hind paw; assay: antiphlogistic (oedema-inhibiting) effect, carrageenin paw oedema; type: in vivo, rats; conditions: for ED30: Rattus norvegicus; for Therapeutical index: carrageenin oedema
Protocol: The antiphlogistic (oedema-inhibiting) effect was tested on rats. 0.1 ml of a 1% carrageenin solution were injected into the plantar region of one of the hind paws. The volume of the paw was measured just before and 3 hours after the introduction of oedema-provoking agent by a mercury plethysmometer.

[3] = tested on: reserpine; assay: reserpine antagonism (Brodie et al.); type: in vivo; conditions: mice; for ED50: Mus musculus, oral administration; for Therapeutic index: reserpine antagonism, oral
[4] = tested on: motility of mice; assay: effect on the motility of mice in a Dews apparatus (Borsy et al.); conditions: for ED50: Mus musculus, po; for Therapeutical index: motility, mice, oral
Description: The effect of the compounds on the motility of mice was orally tested in a Dews apparatus, by the method of Borsy et al. (Arch. Int. Pharmacodyn. 124 1-2 (1960). The ED50 values and the therapeutical indices are listed in Table 2.

[5] = tested on: hexobarbital-narcosis; assay: effect on the duration of hexobarbital-narcosis (Kaergaard); conditions: for ED50: Mus musculus, po; for Therapeutical index: hexobarbital-narcosis, mice, oral
Description: The effect of the compounds exerted on the duration of hexobarbital-narcosis was orally tested on mice by the method of Kaergaard (Arch. Int. Pharmacodyn. 2 170 (1967)).

[6] = in vivo; conditions: mouse
Protocol: The toxicity of the new compounds according to the invention was determined on mice after oral administration.

[7] = tested on: tetrabenazine; assay: tetrabenazine antagonism (Brodie et al.); type: in vivo; conditions: mice; for ED50: Mus musculus, oral administration; for Therapeutic index: tetrabenazine antagonism, oral
[8] = dosage inhibiting the inflammation by 30%, rats, 0.1 ml of 1% carrageenin, 3 hours, read-out: ED30

SMILES	ED50 [1]	Therapeutical index [1]	ED30 [2, 8]	Therapeutical index ([2]; rats)	ED50 [3]	Therapeutic index [3]	ED50 [4]	Therapeutical index [4]	ED50 [5]	Therapeutical index [5]	LD50 ([6]; mice, oral administration)	ED50 [7]	Therapeutic index [7]	LD50 ([6]; po)	ED30 ([2]; 3 h)
CCC(=O)N1NC(c2ccc(OC)cc2)=Nc2cccnc21 [Example 5, 3-anisyl-1-propionyl-1,2-dihydropyrido[3,2-e]-as-triazine hydrochloride]	52 mg/kg	14.4	75 mg/kg	10	170 mg/kg	4.4	~170 mg/kg	4.4	~170 mg/kg	4.4	750 mg/kg	80 mg/kg	9.4	–	–
CCCCC1C(=O)N2C(c3ccccc3)=Nc3cccnc3N2C1=O (stereo not shown) [Example 13, 2-butyl-4-phenylpyrazolo[1,2-a]pyrido[3,2-e]-as-triazine-1,3-dione]	> 400 mg/kg	below 5	> 400 mg/kg	below 5	–	–	–	–	–	–	–	–	–	2000 mg/kg	–
CCCCCCC1=Nc2cccnc2N(C(=O)c2cccnc2)N1 [Example 11, 3-n-hexyl-1-nicotinoyl-1,2-dihydropyrido-[3,2-e]-as-triazinedihydrochloride]	~400 mg/kg	5	–	–	–	–	~200 mg/kg	about 10	140 mg/kg	14.3	–	–	–	2000 mg/kg	–
CCC(=O)N1NC(c2cc(OC)c(OC)c(OC)c2)=Nc2cccnc21.Cl [Example 6, 3-(3',4',5'-trimethoxyphenyl)-1-propionyl-1,2-dihydropyrido[3,2-e]-as-triazine hydrochloride]	215 mg/kg	9.3	~155 mg/kg	12.9	–	–	~400 mg/kg	about 5	~350 mg/kg	5.7	2000 mg/kg	–	–	–	–
CCCCCCC1=Nc2cccnc2N(C(=O)c2ccccc2)N1.Cl [Example 18, 3-hexyl-1-benzoyl-1,2-dihydropyrido[3,2-e]-as-triazine hydrochloride]	~38 mg/kg	10	~70 mg/kg	5.4	30 mg/kg	12.7	–	–	80 mg/kg	5	380 mg/kg	10 mg/kg	38	–	–
CC(=O)Nc1ccc(O)cc1 [Paracetamol, reference compound]	180 mg/kg	–	–	–	–	–	–	–	–	–	–	–	–	–	–
CC(=O)Oc1ccccc1C(=O)O [Acetylsalicylic acid, reference compound]	–	–	–	–	–	–	–	–	–	–	–	–	–	–	180 mg/kg
CCCCCCC1=Nc2cccnc2N(C(=O)CC)N1.Cl [Example 1, 3-n-hexyl-1-propionyl-1,2-dihydropyrido[3,2-e]-as-triazine hydrochloride]	–	–	200 mg/kg	7.5	300 mg/kg	5	~200 mg/kg	7.5	~400 mg/kg	about 5	1500 mg/kg	300 mg/kg	5	–	–
CN(C)CCC=C1c2ccccc2CCc2ccccc21 [Amitriptyline, reference compound]	–	–	–	–	65 mg/kg	3.46	–	–	–	–	–	12 mg/kg	18.75	–	–
CCC(=O)N1NC(CCc2ccccc2)=Nc2cccnc21 [Example 7, 3-phenetyl-1-propionyl-1,2-dihydropyrido-[3,2-e]-as-triazine]	> 400 mg/kg	below 5	–	–	–	–	> 400 mg/kg	under 5	> 400 mg/kg	below 5	2000 mg/kg	–	–	–	–
CCCC(C)(COC(N)=O)COC(N)=O [Meprobamate, reference compound]	–	–	–	–	–	–	270 mg/kg	4.1	260 mg/kg	4.2	–	–	–	–	–
